# Experimental data reported in patent US12649723B2, “Carbonohydrazonoyl dicyanide compounds comprising 2 or more aryl or heteroaryl connected via linker and use thereof” (KOREA INSTITUTE OF SCIENCE AND TECHNOLOGY, priority 2020, dated 2026).
# Key:
# [1] = system: Tau-BiFC cells; experiment: Cell viability (cytotoxicity) in tau-BiFC cells, count of stained nuclei; format: cell-based; settings: Forskolin-only group = 100% cell viability; for Cell viability (% @10 μM): compound 10 μM; for Cell viability: compounds marked *: measured at 3 μM
# Procedure, shortened: (§1)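 Tau-BiFC cells were exposed for 48 h to compound (1, 3, 10 μM for screening; 0.03–30 μM for dose-response) plus 30 μM Forskolin to induce aggregation. BiFC fluorescence was normalised to Forskolin-only minus untreated controls, with IC50 from nonlinear regression. Viability was Hoechst-stained nuclei counts relative to Forskolin-only wells.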
# [2] = target: T1, tau protein (Homo sapiens, UniProt P10636); experiment: Tau-BiFC cell model: inhibition of tau protein aggregation; format: cell-based; settings: for remaining activity at 10 µM / remaining activity at 3 µM: 48 h, Forskolin-only group = 100% tau protein-aggregated state; for remaining activity at 10 µM: compound 10 μM, BiFC fluorescence, read-out: Response (% @10 μM); for IC50: Tau BiFC in cells, with Forskolin 30 μM, 48 hours; for remaining activity at 3 µM: compounds marked *: measured at 3 μM, read-out: Response
# T1 construct: fused on or other part: Split fluorescent-protein halves for BiFC are fused to tau; In the published tau-BiFC line these are Venus VN173 and VC155
# T1 sequence (P10636 2-441 isoform P10636-8 limits assumed): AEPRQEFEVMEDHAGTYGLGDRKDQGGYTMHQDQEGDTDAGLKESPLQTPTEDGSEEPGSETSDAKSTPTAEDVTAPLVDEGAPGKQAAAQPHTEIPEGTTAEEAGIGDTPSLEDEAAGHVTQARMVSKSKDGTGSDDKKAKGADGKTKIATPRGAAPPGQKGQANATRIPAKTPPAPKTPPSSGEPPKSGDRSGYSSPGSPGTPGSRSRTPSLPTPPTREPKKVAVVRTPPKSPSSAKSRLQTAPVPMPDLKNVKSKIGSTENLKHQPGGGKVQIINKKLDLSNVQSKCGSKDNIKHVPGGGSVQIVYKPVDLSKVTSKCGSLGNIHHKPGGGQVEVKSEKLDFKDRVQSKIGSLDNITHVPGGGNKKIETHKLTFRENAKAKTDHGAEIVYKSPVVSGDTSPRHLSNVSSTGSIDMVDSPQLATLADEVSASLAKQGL
# Procedure, shortened: as §1
# [3] = target: T2, CYP2C9 (Homo sapiens, UniProt P11712); experiment: Inhibitory effect on CYP coenzyme activity, human liver microsomes; format: in vitro ADME; settings: compound 10 μM; human liver microsomes 0.25 mg/mL; substrate diclofenac; 15 minutes
# T2 construct: human liver microsomes (0.25 mg/mL); from tissue; host or cells: human liver microsomes
# T2 sequence (P11712 whole entry): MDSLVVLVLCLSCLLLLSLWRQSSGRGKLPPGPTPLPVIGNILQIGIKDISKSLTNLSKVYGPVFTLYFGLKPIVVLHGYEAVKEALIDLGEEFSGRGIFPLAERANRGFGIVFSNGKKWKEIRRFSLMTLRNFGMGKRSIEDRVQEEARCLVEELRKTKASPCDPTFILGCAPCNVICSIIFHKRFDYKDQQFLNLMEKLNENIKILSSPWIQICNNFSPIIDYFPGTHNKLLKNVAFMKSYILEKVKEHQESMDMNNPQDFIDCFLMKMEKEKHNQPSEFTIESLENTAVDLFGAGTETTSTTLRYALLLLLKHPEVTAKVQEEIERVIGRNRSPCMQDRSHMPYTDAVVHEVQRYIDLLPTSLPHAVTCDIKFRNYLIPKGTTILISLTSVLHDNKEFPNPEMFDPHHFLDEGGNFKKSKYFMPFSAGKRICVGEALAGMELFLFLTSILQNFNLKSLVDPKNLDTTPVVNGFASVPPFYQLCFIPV
# Description: (§2) The inhibitory effects of the compounds prepared according to Examples 1 to 175 on CYP coenzyme activity were identified. Specifically, human liver microsomes (0.25 mg/mL), a 0.1 M phosphate buffer solution (pH 7.4), a substrate drug cocktail of five types of drug metabolism enzymes (50 μM phenacetin, 10 μM diclofenac, 100 μM S-mephenytoin, 5 μM dextromethorphan, and 2.5 μM midazolam), and the compound at a concentration of 0 μM or 10 μM were mixed and pre-cultured at 37° C. for 5 minutes, and then further cultured at 37° C. for 15 minutes together with an NADPH generation system solution added thereto. Thereafter, the reaction was terminated by adding an acetonitrile solution containing an internal standard material (terfenadine) and centrifuged for 5 minutes (14,000 rpm, 4° C.), and then a supernatant was injected into an LC-MS/MS system for simultaneous analysis of metabolites of the substrate drugs to thereby evaluate the inhibitory effects on drug metabolism.
# (§3) Metabolites of each CYP coenzyme indicator drug generated through the reaction were analyzed using the Shimadzu Nexera XR system and TSQ Vantage (Thermo). In an HPLC column, Kinetex C18 (2.1 mm×100 mm, 2.6 μm, particle size; Phenomenex, USA) was used, and mobile phases were (A) distilled water containing 0.1% formic acid and (B) acetonitrile containing 0.1% formic acid, and a gradient program shown in Table 3 was applied thereto.
# (§4) The generated metabolites were quantified using a multiple reaction monitoring (MRM) quantification mode, and Xcalibur (version 1.6.1) was used for data analysis. Inhibitory effects of the novel compound prepared according to the examples of the present invention on CYP coenzyme activity are shown in Table 4 below.
# [4] = target: T3, CYP2D6 (Homo sapiens, UniProt P10635); experiment: as above; format: in vitro ADME; settings: compound 10 μM; human liver microsomes 0.25 mg/mL; substrate dextromethorphan; 15 minutes
# T3 construct: human liver microsomes (0.25 mg/mL); from tissue; host or cells: human liver microsomes
# T3 sequence (P10635 whole entry): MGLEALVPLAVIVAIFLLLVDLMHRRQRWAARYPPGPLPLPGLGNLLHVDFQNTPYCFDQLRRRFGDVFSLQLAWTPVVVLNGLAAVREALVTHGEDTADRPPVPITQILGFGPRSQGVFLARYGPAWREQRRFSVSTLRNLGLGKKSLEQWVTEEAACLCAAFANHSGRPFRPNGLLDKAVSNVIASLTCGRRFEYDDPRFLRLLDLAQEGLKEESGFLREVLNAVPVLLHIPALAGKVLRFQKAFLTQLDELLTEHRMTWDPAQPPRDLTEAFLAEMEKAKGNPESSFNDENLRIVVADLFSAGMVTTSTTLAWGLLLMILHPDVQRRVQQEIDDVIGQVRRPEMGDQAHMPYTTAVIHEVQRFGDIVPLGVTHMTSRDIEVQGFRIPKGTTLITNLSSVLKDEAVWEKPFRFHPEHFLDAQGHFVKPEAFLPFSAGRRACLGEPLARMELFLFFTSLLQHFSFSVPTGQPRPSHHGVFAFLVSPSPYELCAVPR
# Description: as §2, §3, §4
# [5] = target: T4, CYP1A2 (Homo sapiens, UniProt P05177); experiment: as above; format: in vitro ADME; settings: compound 10 μM; human liver microsomes 0.25 mg/mL; substrate phenacetin; 15 minutes
# T4 construct: human liver microsomes (0.25 mg/mL); from tissue; host or cells: human liver microsomes
# T4 sequence (P05177 1-516): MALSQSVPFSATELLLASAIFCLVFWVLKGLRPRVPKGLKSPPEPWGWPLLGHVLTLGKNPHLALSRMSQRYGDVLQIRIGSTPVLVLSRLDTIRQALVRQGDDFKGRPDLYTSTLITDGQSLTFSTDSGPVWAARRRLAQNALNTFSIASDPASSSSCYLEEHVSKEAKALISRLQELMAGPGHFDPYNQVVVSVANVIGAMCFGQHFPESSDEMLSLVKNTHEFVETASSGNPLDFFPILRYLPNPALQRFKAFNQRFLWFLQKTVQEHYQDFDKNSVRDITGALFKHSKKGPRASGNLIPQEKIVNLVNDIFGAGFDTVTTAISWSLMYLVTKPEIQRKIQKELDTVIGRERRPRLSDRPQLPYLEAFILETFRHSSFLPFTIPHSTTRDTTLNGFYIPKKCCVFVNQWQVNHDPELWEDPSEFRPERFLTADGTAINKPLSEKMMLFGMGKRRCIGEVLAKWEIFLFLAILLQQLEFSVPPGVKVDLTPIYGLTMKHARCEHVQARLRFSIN
# Description: as §2, §3, §4
# [6] = target: T5, CYP3A4 (Homo sapiens, UniProt P08684); experiment: as above; format: in vitro ADME; settings: compound 10 μM; human liver microsomes 0.25 mg/mL; substrate midazolam; 15 minutes
# T5 construct: human liver microsomes (0.25 mg/mL); from tissue; host or cells: human liver microsomes
# T5 sequence (P08684 whole entry): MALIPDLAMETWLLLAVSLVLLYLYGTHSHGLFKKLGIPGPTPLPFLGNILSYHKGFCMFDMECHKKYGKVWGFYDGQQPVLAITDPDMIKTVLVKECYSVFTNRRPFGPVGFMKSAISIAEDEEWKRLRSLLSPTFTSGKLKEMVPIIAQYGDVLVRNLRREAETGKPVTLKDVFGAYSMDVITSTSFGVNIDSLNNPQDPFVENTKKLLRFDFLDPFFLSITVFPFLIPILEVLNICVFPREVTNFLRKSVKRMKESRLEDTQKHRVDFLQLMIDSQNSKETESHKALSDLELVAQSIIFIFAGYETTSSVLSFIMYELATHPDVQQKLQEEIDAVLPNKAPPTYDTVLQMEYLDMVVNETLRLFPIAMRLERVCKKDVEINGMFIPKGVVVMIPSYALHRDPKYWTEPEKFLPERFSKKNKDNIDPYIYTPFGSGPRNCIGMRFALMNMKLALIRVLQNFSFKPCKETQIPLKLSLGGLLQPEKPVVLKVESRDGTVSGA
# Description: as §2, §3, §4
# [7] = target: T6, CYP2C19 (Homo sapiens, UniProt P33261); experiment: as above; format: in vitro ADME; settings: compound 10 μM; human liver microsomes 0.25 mg/mL; substrate S-mephenytoin; 15 minutes
# T6 construct: human liver microsomes (0.25 mg/mL); from tissue; host or cells: human liver microsomes
# T6 sequence (P33261 whole entry): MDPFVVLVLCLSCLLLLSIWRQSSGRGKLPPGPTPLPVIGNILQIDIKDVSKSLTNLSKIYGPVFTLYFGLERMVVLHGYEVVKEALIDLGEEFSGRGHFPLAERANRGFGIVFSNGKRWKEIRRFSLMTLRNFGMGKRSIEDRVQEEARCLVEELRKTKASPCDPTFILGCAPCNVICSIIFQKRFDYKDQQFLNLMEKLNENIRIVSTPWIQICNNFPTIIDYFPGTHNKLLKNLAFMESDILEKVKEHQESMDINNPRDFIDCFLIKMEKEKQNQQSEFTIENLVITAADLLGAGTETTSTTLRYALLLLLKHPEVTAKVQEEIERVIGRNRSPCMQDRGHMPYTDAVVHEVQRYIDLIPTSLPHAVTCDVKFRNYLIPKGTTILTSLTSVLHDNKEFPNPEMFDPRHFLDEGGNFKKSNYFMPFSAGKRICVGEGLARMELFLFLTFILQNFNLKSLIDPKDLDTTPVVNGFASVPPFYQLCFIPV
# Description: as §2, §3, §4
# [8] = Liver microsome stability; format: in vitro ADME, human; settings: amount of substrate remaining; compound 1 μM, 30 minutes, 37° C., NADPH
# Description: (§5) The stability of liver microsomes due to the compounds prepared according to Examples 1 to 175 was confirmed. Specifically, four types of liver microsomes (human, dog, rat, and mouse, each 0.25 mg/mL), a 0.1 M phosphate buffer solution (pH 7.4), and each of the compounds at a concentration of 1 μM were mixed and pre-cultured at 37° C. for 5 minutes and further cultured at 37° C. for 30 minutes together with an NADPH generation system solution added thereto. Thereafter, the reaction was terminated by adding an acetonitrile solution containing an internal standard material (chloropropamide) and centrifuged for 5 minutes (14,000 rpm, 4° C.), and then a supernatant was injected into an LC-MS/MS system for analysis of substrate drugs to thereby evaluate metabolic stability due to 8 types of compounds.
# (§6) The amount of the substrate remaining after the reaction was analyzed using the Shimadzu Nexera XR system and TSQ Vantage (Thermo). In an HPLC column, Kinetex XB-C18 (2.1 mm×100 mm, particle size of 2.6 μm; Phenomenex, USA) was used, and mobile phases were (A) distilled water containing 0.1% formic acid and (B) acetonitrile containing 0.1% formic acid. Analyst software (version 1.6.3) and Xcalibur (version 1.6.1) were used for data analysis.
# [9] = Liver microsome stability; format: in vitro ADME, rat; settings: amount of substrate remaining; compound 1 μM, 30 minutes, 37° C., NADPH
# Description: as §5, §6
# [10] = Liver microsome stability; format: in vitro ADME, mouse; settings: amount of substrate remaining; compound 1 μM, 30 minutes, 37° C., NADPH
# Description: as §5, §6
SMILES,Cell viability (% @10 μM) [1] [%],remaining activity at 10 µM [2] [%],IC50 [2] [nM],CYP2C9 [3],CYP2D6 [4],CYP1A2 [5],CYP3A4 [6],CYP2C19 [7],Human (%) [8] [%],Rat (%) [9] [%],Mouse (%) [10] [%],Cell viability [1] [%],remaining activity at 3 µM [2] [%]
"Cc1ccc(C(=O)Nc2ccc(NN=C(C#N)C#N)cn2)cc1 [Compound 23, (6-(4-methylbenzamido)pyridin-3-yl)carbonohydrazonoyl dicyanide]",114.2,0,130,40.6,>100,85,83.3,82.5,,,,,
"COc1cc(NN=C(C#N)C#N)ccc1C(=O)Nc1cnc(C)cn1 [Compound 104, (3-methoxy-4-(5-methylpyrazin-2-ylcarbamoyl)phenyl)carbonohydrazonoyl dicyanide]",142,0,260,48.6,>100,78.4,66.1,82.4,84.1,87.5,97.2,,
"N#CC(C#N)=NNc1ccc(OCc2cccnc2)cc1 [Compound 124, (4-(pyridin-3-ylmethoxy)phenyl)carbonohydrazonoyl dicyanide]",140.9,0,620,4.4,46.6,23.4,37.5,69.9,,,,,
"N#CC(C#N)=NNc1ccc(OCc2ncccn2)cc1 [Compound 136, (4-(pyrimidin-2-ylmethoxy)phenyl)carbonohydrazonoyl dicyanide]",95.7,0,1440,70,94.4,80.3,88.9,76.5,,,,,
"N#CC(C#N)=NNc1ccc(OCc2cn[nH]c2)cc1 [Compound 137, (4-((1H-pyrazol-4-yl)methoxy)phenyl)carbonohydrazonoyl dicyanide]",,,,37,>100,>100,84.8,>100,,,,129,31
"Cc1cnc(COc2ccc(NN=C(C#N)C#N)cc2)cn1 [Compound 138, (4-((5-methylpyrazin-2-yl)methoxy)phenyl)carbonohydrazonoyl dicyanide]",,,,92.5,92.7,97.4,89.4,>100,,,,133,15
"CC(Oc1ccc(NN=C(C#N)C#N)cc1)c1cccnc1 (centres unmarked) [Compound 140, (4-(1-(pyridin-3-yl)ethoxy)phenyl)carbonohydrazonoyl Dicyanide]",,,,11.7,69.6,96.7,30.8,>100,,,,135,18
"Cc1cc(NN=C(C#N)C#N)ccc1OCc1cc[nH]n1 [Compound 151, (4-((1H-pyrazol-3-yl)methoxy)-3-methylphenyl)carbonohydrazonoyl dicyanide]",,,22,19.4,94.8,51.8,88,>100,,,,126,-32
"COc1cc(NN=C(C#N)C#N)ccc1OCc1ccccc1 [Compound 153, (4-(benzyloxy)-3-methoxyphenyl)carbonohydrazonoyl dicyanide]",,,37,44.1,90.7,67.9,98.9,100,,,,122,-43
"COc1cc(NN=C(C#N)C#N)ccc1OCc1ccc(C)cc1 [Compound 154, (3-methoxy-4-(4-methylbenzyloxy)phenyl)carbonohydrazonoyl dicyanide]",,,32,26.6,81.7,79.1,72.5,76.3,,,,106,-52
"COc1cc(NN=C(C#N)C#N)ccc1OCc1cnccn1 [Compound 159, (3-methoxy-4-(pyrazin-2-ylmethoxy)phenyl)carbonohydrazonoyl dicyanide]",,,7,54.7,86.1,42.4,82.1,88,,,,114,-40
"COc1cc(NN=C(C#N)C#N)ccc1OCc1cccnc1 [Compound 160, (3-methoxy-4-(pyridin-3-ylmethoxy)phenyl)carbonohydrazonoyl dicyanide]",,,7,6.5,59.7,5.8,17.9,68.5,,,,111,-33
"COc1cc(NN=C(C#N)C#N)ccc1OCc1cnc(C)cn1 [Compound 162, (3-methoxy-4-((5-methylpyrazin-2-yl)methoxy)phenyl)carbonohydrazonoyl dicyanide]",,,49,73.5,70.3,79.8,73.3,75.9,,,,115,-25
"COc1cc(NN=C(C#N)C#N)ccc1OCc1cc[nH]n1 [Compound 168, (4-((1H-pyrazol-3-yl)methoxy)-3-methoxyphenyl)carbonohydrazonoyl dicyanide]",,,132,,,,,,54.8,44,77.8,123,-17
